Experimental data reported in PMC9218946, “Identification of a Subtype-Selective Allosteric Inhibitor of GluN1/GluN3 NMDA Receptors” (Frontiers in Pharmacology, 2022).

Key:
GluN1/GluN2A = target: T1, GluN1/GluN2A (Homo sapiens, UniProt Q05586+Q12879); assay: GluN1/GluN2A currents (data analyzed from Figure 3D, TEVC in Xenopus oocytes); type: cell-based; settings: 30 μM WZB117
T1 construct: expressed in transfected cells; host or cells: Xenopus oocytes
Protocol: Two-electrode voltage-clamp (TEVC) recordings were performed on Xenopus oocytes expressing various subtypes of recombinant NMDARs. Each oocyte was injected with a mixture of 0.5–1.0 ng cDNAs or cRNAs encoding wild-type (WT) or mutant GluN1 (GluN1-1a or GluN1-4a) and GluN2 (2A-2D) or GluN3 (3A-3B) at a ratio of 1:1. The mutant GluN1-4a ^F484A/T518L was injected together with GluN3B to boost the currents of GluN1/GluN3B receptors, and WT GluN1-1a was used unless otherwise stated. The cRNAs of GluN1-4a, GluN3A and GluN3B were transcribed from corresponding DNAs using the mMESSAGE mMACHINE T7 Ultra kit (Life Technologies) according to the manufacturer’s instructions, and the others not specified were cDNAs. TEVC recording was performed 24–72 h post injection in extracellular solution containing (in mM): 100 NaCl, 0.3 BaCl2, 2.5 KCl, 0.01 DTPA and 5 HEPES, and the pH was adjusted to 7.3 using NaOH. All recordings were carried out at a holding potential of −60 mV.
Supplementary Figure S3 Effects of WZB117 on currents from HEK-293 cells co-expressing GluN1/GluN2A/GluN3A subunits. GluN1/GluN2A/GluN3A receptors were expressed on HEK-293 cells at a ratio of GluN1-EGFP: GluN2A: GluN3A = 1:1:2. The GluN1/GluN2A/GluN3A receptors were stimulated by 100 μM glutamate and 100 μM glycine. The data of GluN1/GluN2A were analyzed from Figure 3D. […]

[1] = target: T2, native GluN1/GluN3 receptors (Rattus norvegicus, UniProt P35439+Q9R1M7); assay: Whole-cell patch-clamp, glycine-induced currents after CGP-78608 in acutely isolated hippocampal neurons; type: cell-based; settings: 10 μM WZB117; glycine-induced currents after incubation with CGP-78608
T2 construct: endogenous in cells; host or cells: acutely isolated hippocampal neurons, Sprague-Dawley rats P7-14
T2 sequence (Q9R1M7 24-1135, other chains not shown): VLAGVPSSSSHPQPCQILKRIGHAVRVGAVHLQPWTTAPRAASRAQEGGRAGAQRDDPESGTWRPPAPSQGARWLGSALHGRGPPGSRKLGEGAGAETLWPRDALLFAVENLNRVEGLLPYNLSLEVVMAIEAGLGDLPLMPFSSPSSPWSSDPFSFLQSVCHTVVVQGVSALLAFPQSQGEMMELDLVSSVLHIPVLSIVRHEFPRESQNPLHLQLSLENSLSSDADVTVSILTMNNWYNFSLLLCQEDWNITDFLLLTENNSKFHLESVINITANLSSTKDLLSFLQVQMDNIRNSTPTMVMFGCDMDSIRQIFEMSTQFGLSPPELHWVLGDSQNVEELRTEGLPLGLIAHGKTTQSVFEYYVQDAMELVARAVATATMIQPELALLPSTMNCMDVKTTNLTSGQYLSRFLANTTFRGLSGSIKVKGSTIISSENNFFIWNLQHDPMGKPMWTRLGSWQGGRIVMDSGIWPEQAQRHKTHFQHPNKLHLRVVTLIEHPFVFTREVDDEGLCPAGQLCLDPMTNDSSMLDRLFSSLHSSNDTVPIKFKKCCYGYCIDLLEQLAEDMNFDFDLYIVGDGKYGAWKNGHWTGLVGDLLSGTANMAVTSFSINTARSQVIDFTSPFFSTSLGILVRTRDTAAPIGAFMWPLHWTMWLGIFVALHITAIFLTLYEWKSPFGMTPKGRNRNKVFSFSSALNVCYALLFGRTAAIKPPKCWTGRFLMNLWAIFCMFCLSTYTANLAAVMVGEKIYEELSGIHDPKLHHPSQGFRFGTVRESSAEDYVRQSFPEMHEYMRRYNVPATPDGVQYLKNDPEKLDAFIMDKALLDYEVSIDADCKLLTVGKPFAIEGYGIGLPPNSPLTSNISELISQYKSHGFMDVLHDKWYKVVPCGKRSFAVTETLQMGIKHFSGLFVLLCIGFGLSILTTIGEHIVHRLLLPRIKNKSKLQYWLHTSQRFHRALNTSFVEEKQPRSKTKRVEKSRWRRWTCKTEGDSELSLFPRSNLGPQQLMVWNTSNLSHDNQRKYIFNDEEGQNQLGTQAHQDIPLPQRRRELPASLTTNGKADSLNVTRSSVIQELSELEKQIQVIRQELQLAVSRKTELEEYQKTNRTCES
Protocol: Hippocampal neurons were obtained from Sprague-Dawley rats (aged P7-14). Briefly, the isolated hippocampal tissues were cut into approximately […] slices along the sagittal plane and were digested with 3 mg/ml proteinase (Sigma-Aldrich) at 32°C for 8 min. Then 1 mg/ml bovine serum albumin (Sangon Biotech) and 1 mg/ml trypsin inhibitor (Sigma-Aldrich) were used to stop the digestion. A few slices of the hippocampus were gently blown into single cells with the dissecting solution, then transferred to a dish and left to rest for 20 min before experiments. The dishes were preprocessed. Essentially, the bottom of the dish was covered with discarded cell suspension the day before the experiment and was washed and dried the next day, which prevented the neurons from sticking to the bottom too tightly. The dissecting solution contained (in mM): 82 Na2SO4, 30 K2SO4, 5 MgCl2, 1 Na pyruvate, 10 HEPES, and 20 glucose. The pH was adjusted to 7.2 using NaOH ([Xie et al., 2020]).
Whole-cell patch-clamp recordings were performed at room temperature (22–25°C) using an EPC-10 amplifier and Patch Master Software (HEKA). Pipettes were pulled from borosilicate glass capillaries (World Precision Instruments), and the resistances were 3–5 MΩ when filled with the intracellular solution. […]

GluN1/GluN3A receptors = GluN1/GluN3A receptors (UniProt Q05586+Q9R1M7); assay: Whole-cell patch-clamp recording on GluN1/GluN3A Flp-in T-REx 293 stable cell lines; type: cell-based, human GluN1-1a, rat GluN3A; parameters: expressed in transfected cells
Chain of GluN1/GluN3A receptors (Q9R1M7 24-1135, other chains not shown): as above

T1 sequence (Q12879 23-1464, other chains not shown): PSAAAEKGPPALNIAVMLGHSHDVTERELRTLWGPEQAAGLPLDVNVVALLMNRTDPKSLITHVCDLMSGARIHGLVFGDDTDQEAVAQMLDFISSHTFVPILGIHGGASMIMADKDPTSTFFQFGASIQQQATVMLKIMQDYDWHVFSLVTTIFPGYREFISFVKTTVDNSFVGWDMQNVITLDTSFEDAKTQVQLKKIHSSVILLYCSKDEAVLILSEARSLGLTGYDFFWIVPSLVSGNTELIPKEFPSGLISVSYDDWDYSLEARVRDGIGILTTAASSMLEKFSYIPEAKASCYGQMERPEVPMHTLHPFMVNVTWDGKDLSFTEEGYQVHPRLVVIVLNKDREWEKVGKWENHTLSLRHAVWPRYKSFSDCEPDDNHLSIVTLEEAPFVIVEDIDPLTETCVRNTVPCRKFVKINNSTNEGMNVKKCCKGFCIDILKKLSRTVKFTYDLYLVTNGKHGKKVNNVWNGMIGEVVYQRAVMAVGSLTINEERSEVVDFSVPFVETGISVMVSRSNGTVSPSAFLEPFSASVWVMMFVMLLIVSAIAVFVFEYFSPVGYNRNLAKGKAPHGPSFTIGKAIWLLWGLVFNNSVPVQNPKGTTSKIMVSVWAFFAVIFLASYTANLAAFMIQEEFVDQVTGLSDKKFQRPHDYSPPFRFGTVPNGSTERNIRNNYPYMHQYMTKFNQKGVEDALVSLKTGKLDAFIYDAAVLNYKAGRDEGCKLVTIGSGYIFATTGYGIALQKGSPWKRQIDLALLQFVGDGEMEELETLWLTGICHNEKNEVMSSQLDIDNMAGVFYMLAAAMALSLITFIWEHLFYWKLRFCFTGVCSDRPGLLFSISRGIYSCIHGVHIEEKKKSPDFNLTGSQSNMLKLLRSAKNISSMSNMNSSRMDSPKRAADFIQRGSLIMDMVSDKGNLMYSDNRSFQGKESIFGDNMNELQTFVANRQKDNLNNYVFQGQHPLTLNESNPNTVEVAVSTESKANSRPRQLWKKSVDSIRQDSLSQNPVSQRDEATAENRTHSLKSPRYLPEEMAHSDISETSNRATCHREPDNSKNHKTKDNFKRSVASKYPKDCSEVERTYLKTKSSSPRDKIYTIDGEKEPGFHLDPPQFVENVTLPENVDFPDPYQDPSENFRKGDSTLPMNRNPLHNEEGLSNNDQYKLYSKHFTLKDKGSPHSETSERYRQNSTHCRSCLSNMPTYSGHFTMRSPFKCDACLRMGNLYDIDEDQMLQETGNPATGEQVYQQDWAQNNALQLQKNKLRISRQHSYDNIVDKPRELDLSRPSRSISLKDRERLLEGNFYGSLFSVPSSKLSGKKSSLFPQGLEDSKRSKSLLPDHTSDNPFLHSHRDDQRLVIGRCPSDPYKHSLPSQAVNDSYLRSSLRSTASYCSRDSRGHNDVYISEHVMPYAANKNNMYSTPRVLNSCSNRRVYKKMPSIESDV

## O=C(Oc1cccc(F)c1OC(=O)c1cccc(O)c1)c1cccc(O)c1 [WZB117, 3-fluoro-1,2-phenylene bis(3-hydroxybenzoate)]
GluN1/GluN2A
  I drug/I cotrol: 0.84 ± 0.01
[1]
  I drug/I control: 0.18 ± 0.03
GluN1/GluN3A receptors; 3 μM WZB117, +40 mV and −60 mV
  voltage-dependence of inhibition activity: no significant change
GluN1/GluN3A receptors; pH 6.9
  IC50: 1270 ± 390 nM
GluN1/GluN3A receptors; pH 8.3
  IC50: 1090 ± 220 nM
